PMC7101422, “N-Phenethyl Substitution in 14-Methoxy-N-methylmorphinan-6-ones Turns Selective µ Opioid Receptor Ligands into Dual µ/δ Opioid Receptor Agonists” (Scientific Reports, 2020)
Where two headings read alike, the source gives them in different places. Marks after values point to notes of the source that are not given here.

What was measured:
[1] = target: T1, human µOR (Homo sapiens, UniProt P35372); experiment: biochemical; type: binding
T1 construct: host or cells: CHO cells (CHO-hµOR; CHO-hµOR-p22F for the cAMP assay)

[2] = target: T2, human δOR (Homo sapiens, UniProt P41143); experiment: Competition binding assay, CHO-hδOR cell membranes ([3H]Diprenorphine)
T2 construct: host or cells: CHO cells (CHO-hδOR; CHO-hδOR-p22F for the cAMP assay)

[3] = target: T3, human κOR (Homo sapiens, UniProt P41145); experiment: biochemical; type: binding
T3 construct: host or cells: CHO cells (CHO-hκOR)

[4] = target: T1, human µOR; experiment: [35S]GTPγS binding assay, CHO-hµOR membranes; type: biochemical; details: for µOR % stim.: [35S]GTPγS binding, relative to DAMGO
[5] = target: T2, human δOR; experiment: [35S]GTPγS binding assay, CHO-hδOR membranes; type: biochemical; details: for δOR % stim. / fold higher δOR agonist potency vs. N-methyl counterpart: [35S]GTPγS binding; for δOR % stim.: relative to DPDPE; for fold higher δOR agonist potency vs. N-methyl counterpart: vs. 14-OMO (3) and 14-MM (4)
[6] = target: T3, human κOR; experiment: [35S]GTPγS binding assay, CHO-hκOR membranes; type: biochemical; details: for κOR % stim.: [35S]GTPγS binding, relative to U69,593
[7] = target: T1, human µOR; experiment: cell-based; type: cell-based; details: for Emax: read-out: µOR % stim.
[8] = target: T2, human δOR; experiment: Forskolin-induced cAMP accumulation assay, CHO-hδOR-p22F cells; type: cell-based; details: for Emax: read-out: δOR % stim.
[9] = test system: mice; experiment: Radiant heat tail-flick test in mice; type: in vivo; details: Mus musculus, sc, 0.5 h, s.c., at 30 min (peak effect), n = 5–6 mice per group, read-out: ED50 (95% CL)
[10] = test system: mice; experiment: Rotarod assay in mice; type: in vivo; details: 30 min after s.c. administration, doses equivalent to a 3- to 4-fold the antinociceptive ED50 dose
[11] = target: T1, human µOR; details: cited from earlier work
[12] = target: T2, human δOR; details: [35S]GTPγS binding; relative to DPDPE; cited from earlier work
[13] = target: T3, human κOR; details: cited from earlier work
[14] = test system: mice; details: s.c., cited from earlier work; for ED50 (95% CL): tail-flick, at 30 min (peak effect)
[15] = test system: mice; details: hot-plate test, s.c.; cited from earlier work

T1 sequence (P35372 whole entry): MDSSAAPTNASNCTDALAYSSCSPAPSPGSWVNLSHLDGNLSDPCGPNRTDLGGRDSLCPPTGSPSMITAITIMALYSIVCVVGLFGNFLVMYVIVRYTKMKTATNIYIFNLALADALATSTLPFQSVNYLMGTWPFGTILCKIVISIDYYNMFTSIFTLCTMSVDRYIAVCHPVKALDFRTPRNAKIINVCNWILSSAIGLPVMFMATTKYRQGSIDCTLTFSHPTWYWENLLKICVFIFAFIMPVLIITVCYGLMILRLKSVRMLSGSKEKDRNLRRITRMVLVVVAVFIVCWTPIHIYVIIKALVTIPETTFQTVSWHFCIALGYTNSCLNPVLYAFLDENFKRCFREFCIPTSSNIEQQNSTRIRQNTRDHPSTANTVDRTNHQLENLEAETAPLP
T2 sequence (P41143 whole entry): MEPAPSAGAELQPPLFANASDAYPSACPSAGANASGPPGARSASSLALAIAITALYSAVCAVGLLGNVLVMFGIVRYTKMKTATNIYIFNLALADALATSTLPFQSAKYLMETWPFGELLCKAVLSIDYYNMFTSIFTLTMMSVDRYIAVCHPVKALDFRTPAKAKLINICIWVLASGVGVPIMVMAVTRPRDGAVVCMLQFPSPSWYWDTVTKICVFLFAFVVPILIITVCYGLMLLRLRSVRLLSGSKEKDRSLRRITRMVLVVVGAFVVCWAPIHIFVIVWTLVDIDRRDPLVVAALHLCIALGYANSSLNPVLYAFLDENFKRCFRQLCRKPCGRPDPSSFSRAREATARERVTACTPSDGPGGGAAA
T3 sequence (P41145 whole entry): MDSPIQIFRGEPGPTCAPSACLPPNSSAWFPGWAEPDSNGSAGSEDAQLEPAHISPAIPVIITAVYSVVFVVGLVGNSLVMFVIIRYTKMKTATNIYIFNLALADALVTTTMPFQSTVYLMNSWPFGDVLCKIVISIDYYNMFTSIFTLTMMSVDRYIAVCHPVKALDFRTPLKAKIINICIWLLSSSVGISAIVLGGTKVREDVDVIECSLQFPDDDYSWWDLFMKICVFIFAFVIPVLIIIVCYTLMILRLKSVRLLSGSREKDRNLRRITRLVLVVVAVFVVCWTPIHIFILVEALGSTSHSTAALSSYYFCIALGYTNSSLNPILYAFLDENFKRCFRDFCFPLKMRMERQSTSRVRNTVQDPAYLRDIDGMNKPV

SMILES | Ki ratio δOR/µOR [1] | Ki ratio κOR/µOR [1] | Ki [2] | Ki [3] | EC50 [4] | µOR % stim. [4] | EC50 [5] | δOR % stim. [5] | EC50 [6] | κOR % stim. [6] | EC50 [7] | Emax [7] | EC50 [8] | Emax [8] | ED50 [9] | Ki [1] | effect on motor coordination (rotarod performance) [10] | ED50 (95% CL) [14] | further results
CO[C@@]12CCC(=O)[C@]3(C)Oc4c(O)ccc5c4[C@@]31CCN(C)[C@@H]2C5 [14-MM (4), 14-methoxymetopon, reference compound] | 74 | 51 | 18.6 ± 0.98 nM | 12.8 ± 1.5 nM | 2.66 ± 0.58 nM | 99 ± 5% | 36.8 ± 12.4 nM | 100 ± 9% | 181 ± 9 nM | 68.9 ± 9.2% | 0.31 ± 0.07 nM | 93 ± 5% | 4.06 ± 0.89 nM | 99 ± 8% | 0.024 mg/kg |  |  |  | Ki ([1]; read-out: Ki µOR): 0.25 ± 0.04 nM
CO[C@@]12CCC(=O)[C@@H]3Oc4c(O)ccc5c4[C@@]31CCN(C)[C@@H]2C5 [14-OMO (3), 14-O-methyloxymorphone, reference compound] | 34 | 38 | 9.08 ± 0.31 nM | 10.3 ± 1.8 nM | 1.21 ± 0.48 nM | 95 ± 5% | 38.5 ± 6.9 nM | 102 ± 4% | 135 ± 29 nM | 65.9 ± 6.5% | 0.19 ± 0.14 nM | 90 ± 8% | 5.42 ± 0.93 nM | 98 ± 3% | 0.014 mg/kg | 0.27 ± 0.09 nM |  |  | 
Oc1ccc2c3c1O[C@H]1[C@@H](O)C=C[C@H]4[C@@H](C2)N(CCc2ccccc2)CC[C@@]341 [Compound 1a] | 98 | 374 | 24.5 ± 8.7 nM | 93.5 ± 2.9 nM |  |  |  |  |  |  | 2.87 ± 0.91 nM | 107 ± 5% | 315 ± 110 nM | 105 ± 8% |  | 0.25 ± 0.09 nM | did not affect the evoked locomotor activity of mice | 0.11 (0.027–0.40)^b mg/kg | fold increased affinity at the human µOR vs. N-methyl parent [1]: ca. 13 fold; fold enhanced µOR agonist potency vs. N-methyl parent [7]: 4- to 5 fold; fold increase in µOR agonist potency vs. N-methyl parent [11]: 2- to 3 fold; µOR % stim. [11]: 113 ± 8^b %; δOR % stim. [12]: 138 ± 17^b %; κOR % stim. [13]: 19 ± 2^b*** %; fold higher antinociceptive potency vs. N-methyl parent ([14]; tail-flick test): 28 fold; fold more effective than morphine (antinociception) [15]: 22 fold
O=C1CC[C@@]2(O)[C@H]3Cc4ccc(O)c5c4[C@@]2(CCN3CCc2ccccc2)[C@H]1O5 [Compound 2a] |  |  |  |  |  |  |  |  |  |  |  |  |  |  |  |  | did not affect the evoked locomotor activity of mice | 0.15 (0.058–0.40)^b mg/kg | 
CO[C@@]12CCC(=O)[C@@H]3Oc4c(O)ccc5c4[C@@]31CCN(CCc1ccccc1)[C@@H]2C5 [Compound 3a, 4,5α-Epoxy-3-hydroxy-14-methoxy-N-phenethylmorphinan-6-one] | 9.5 | 83 | 1.81 ± 0.68 nM | 15.8 ± 8.8 nM | 1.26 ± 0.63 nM | 98 ± 10% | 9.34 ± 0.6 nM | 107 ± 5% | 144 ± 9 nM | 35.4 ± 7.5 % | 0.078 ± 0.004 nM | 88 ± 12% | 0.6 ± 0.07 nM | 93 ± 2% | 0.014 mg/kg | 0.19 ± 0.02 nM | lack of the mixed µ/δOR agonists 3a and 4a to induce motor dysfunction |  | fold higher δOR agonist potency vs. N-methyl counterpart [5]: 4 fold; melting point: 180 to 182 °C
CO[C@@]12CCC(=O)[C@]3(C)Oc4c(O)ccc5c4[C@@]31CCN(CCc1ccccc1)[C@@H]2C5 [Compound 4a, 4,5α-Epoxy-3-hydroxy-14-methoxy-5-methyl-N-phenethylmorphinan-6-one] | 6.0 | 147 | 1.45 ± 0.31 nM | 35.3 ± 5.5 nM | 1.86 ± 0.84 nM | 102 ± 13% | 9.54 ± 2.33 nM | 103 ± 2% | 334 ± 114 nM | 51.3 ± 10.4% | 0.15 ± 0.07 nM | 98 ± 12% | 0.55 ± 0.16 nM | 96 ± 4% | 0.024 mg/kg | 0.24 ± 0.03 nM | lack of the mixed µ/δOR agonists 3a and 4a to induce motor dysfunction |  | fold decrease in κOR affinity vs. N-methyl parent [3]: ca. 3 fold; fold higher δOR agonist potency vs. N-methyl counterpart [5]: 4 fold; melting point: 179 to 180 °C
CN1CC[C@]23c4c5ccc(O)c4O[C@H]2[C@@H](O)C=C[C@H]3[C@H]1C5 [Morphine (1), Morphine, reference compound] |  |  |  |  |  |  |  |  |  |  |  |  |  |  |  |  | caused a significant deficit in rotarod performance |  | 
CN1CC[C@]23c4c5ccc(O)c4O[C@H]2C(=O)CC[C@@]3(O)[C@H]1C5 [Oxymorphone (2), oxymorphone, reference compound] |  |  |  |  |  |  |  |  |  |  |  |  |  |  |  |  | caused a significant deficit in rotarod performance | 0.35 (0.16–0.77)^b mg/kg | 
